# Structures can show the parent of a compound that is named as a salt. Where two headings read alike, the source gives them in different places.
# Tests used:
# Format in all cases: biochemical
# [1] = biological target: T1, recombinant human MAO-A (monoamine oxidase-A) (Homo sapiens, UniProt P21397); assay: Amplex Red HRP-coupled amine oxidase activity evaluation, recombinant human MAO-A; conditions: substrate 0.5 mM tyramine; read-out: Inhibitory Activity (IC50, nM) MAO-A
# T1 construct: purchased Sigma-Aldrich
# T1 sequence (P21397 1-527): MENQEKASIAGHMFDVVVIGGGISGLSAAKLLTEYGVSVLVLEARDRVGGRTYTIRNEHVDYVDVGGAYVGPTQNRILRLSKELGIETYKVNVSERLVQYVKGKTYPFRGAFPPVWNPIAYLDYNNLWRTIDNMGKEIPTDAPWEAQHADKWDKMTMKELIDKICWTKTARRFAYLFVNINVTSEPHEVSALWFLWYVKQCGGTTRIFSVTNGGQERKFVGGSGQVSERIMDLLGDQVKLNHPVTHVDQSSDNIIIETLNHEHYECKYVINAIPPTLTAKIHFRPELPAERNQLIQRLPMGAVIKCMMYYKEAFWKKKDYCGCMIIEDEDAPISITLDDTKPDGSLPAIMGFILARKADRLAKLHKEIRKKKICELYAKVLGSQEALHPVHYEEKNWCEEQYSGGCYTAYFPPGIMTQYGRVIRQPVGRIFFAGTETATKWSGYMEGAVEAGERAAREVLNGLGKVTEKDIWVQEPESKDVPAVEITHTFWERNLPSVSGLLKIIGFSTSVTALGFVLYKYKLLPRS
# Experimental: [The source words this procedure for another target and says it was used here with some conditions changed.] (§1) The compounds according to the present technology were evaluated in terms of activity on recombinant human VAP-1 (R&D systems) by measuring the level of hydrogen peroxide in horseradish peroxidase (HRP)-coupled reaction using Amplex Red Hydrogen Peroxide Assay Kit (Molecular Probes, Invitrogen, USA). The experiment was carried out at room temperature using benzylamine as a substrate. In the HRP-coupled reaction, hydrogen peroxide oxidation of 10-acetyl-3,7-dihydroxyphenoxazine (Amplex Red reagent) produces resorufin, which is a highly fluorescent compound. Briefly, the test compound was dissolved in dimethyl sulfoxide (DMSO) at a concentration of 20 mM. The dose-response assessment was made by 1:3 serial dilution in DMSO, thereby creating an 8-point curve. The concentration of the upper part was controlled according to the efficacy of the compounds, followed by dilution with a reaction buffer solution to obtain a final DMSO concentration of less than 1%. To each well of a 96 black well plate, human VAP-1 purified in 50 mM sodium phosphate buffer solution (pH7.4) was added. The test compounds dissolved in DMSO were incubated with the human VAP-1 enzymes at 37° C. for 30 minutes. After 30-minute incubation, each well was added with a reaction mixture containing 200 uM Amplex Red reagent prepared from 50 mM sodium phosphate buffer solution (pH 7.4), 1 mM benzylamine, and 1 U/mL HRP. Fluorescence intensity was measured at several time points during 1-2 hours using a microplate reader (Flexstation3, Molecular Devices) under the wavelength condition exciting at 544 nm and reading the emission at 590 nm. The inhibitory effect of the compounds was measured as a decrease (%) in the signal rate as compared to the control group without any inhibitor (only diluted DMSO). Data was fixed to a logistic model with four variables and IC50 value was calculated using GraphPad Prism program.
# recombinant human VAP-1 = biological target: T2, recombinant human VAP-1 (Homo sapiens, UniProt Q16853); assay: Amplex Red HRP-coupled amine oxidase activity evaluation, recombinant human VAP-1; conditions: substrate 1 mM benzylamine; 30 min preincubation at 37° C.; read-out: Inhibitory Activity (IC50, nM) human VAP-1
# T2 construct: purchased R&D systems
# T2 sequence (Q16853 1-763): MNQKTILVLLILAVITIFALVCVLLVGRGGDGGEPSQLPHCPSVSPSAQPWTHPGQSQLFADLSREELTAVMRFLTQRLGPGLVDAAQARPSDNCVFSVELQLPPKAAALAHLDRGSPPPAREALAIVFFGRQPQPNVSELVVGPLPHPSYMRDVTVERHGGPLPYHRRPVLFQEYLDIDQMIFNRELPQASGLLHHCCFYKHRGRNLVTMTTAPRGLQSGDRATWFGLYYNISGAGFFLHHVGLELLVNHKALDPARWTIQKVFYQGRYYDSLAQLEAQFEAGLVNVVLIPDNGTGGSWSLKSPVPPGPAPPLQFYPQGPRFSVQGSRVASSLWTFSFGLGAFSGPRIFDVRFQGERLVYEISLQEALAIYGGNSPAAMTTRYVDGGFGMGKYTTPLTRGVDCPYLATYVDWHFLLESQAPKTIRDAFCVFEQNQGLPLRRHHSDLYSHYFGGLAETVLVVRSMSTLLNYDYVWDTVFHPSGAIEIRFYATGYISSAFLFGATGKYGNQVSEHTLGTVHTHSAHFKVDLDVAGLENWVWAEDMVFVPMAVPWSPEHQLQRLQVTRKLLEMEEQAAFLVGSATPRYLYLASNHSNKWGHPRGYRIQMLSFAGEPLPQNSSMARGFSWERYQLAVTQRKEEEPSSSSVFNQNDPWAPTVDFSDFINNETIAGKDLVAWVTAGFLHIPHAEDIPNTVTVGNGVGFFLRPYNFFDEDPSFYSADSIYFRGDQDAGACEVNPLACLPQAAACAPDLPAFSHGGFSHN
# Experimental: as §1
# [2] = biological target: T3, recombinant human DAO (diamine oxidase) (Homo sapiens, UniProt P19801); assay: Amplex Red HRP-coupled amine oxidase activity evaluation, recombinant human DAO
# T3 construct: purchased R&D systems
# T3 sequence (P19801 20-751): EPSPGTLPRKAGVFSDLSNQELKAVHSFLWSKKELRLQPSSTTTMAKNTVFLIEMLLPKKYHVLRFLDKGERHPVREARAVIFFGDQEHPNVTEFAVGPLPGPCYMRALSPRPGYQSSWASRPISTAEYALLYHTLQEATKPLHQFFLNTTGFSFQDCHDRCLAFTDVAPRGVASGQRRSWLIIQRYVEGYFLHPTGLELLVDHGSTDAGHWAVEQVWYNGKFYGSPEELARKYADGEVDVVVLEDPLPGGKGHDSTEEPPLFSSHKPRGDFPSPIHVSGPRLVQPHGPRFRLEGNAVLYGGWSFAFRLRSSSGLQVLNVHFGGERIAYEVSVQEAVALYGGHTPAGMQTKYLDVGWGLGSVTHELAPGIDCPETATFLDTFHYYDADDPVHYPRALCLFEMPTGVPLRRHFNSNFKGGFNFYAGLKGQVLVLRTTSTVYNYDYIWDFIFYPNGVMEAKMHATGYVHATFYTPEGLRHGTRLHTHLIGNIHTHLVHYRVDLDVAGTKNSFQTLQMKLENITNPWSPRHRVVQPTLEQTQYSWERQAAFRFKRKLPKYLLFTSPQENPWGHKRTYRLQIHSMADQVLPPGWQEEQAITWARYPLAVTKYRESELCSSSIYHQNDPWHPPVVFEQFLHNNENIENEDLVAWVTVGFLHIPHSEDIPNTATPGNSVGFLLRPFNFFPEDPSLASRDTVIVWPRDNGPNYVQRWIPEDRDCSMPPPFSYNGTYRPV
# Experimental: [The source words this procedure for another target and says it was used here with some conditions changed.] as §1
# [3] = biological target: T4, recombinant human MAO-B (monoamine oxidase-B) (Homo sapiens, UniProt P27338); assay: Amplex Red HRP-coupled amine oxidase activity evaluation, recombinant human MAO-B; conditions: substrate 1 mM benzylamine; read-out: Inhibitory Activity (IC50, nM) MAO-B
# T4 construct: purchased Sigma-Aldrich
# T4 sequence (P27338 1-520): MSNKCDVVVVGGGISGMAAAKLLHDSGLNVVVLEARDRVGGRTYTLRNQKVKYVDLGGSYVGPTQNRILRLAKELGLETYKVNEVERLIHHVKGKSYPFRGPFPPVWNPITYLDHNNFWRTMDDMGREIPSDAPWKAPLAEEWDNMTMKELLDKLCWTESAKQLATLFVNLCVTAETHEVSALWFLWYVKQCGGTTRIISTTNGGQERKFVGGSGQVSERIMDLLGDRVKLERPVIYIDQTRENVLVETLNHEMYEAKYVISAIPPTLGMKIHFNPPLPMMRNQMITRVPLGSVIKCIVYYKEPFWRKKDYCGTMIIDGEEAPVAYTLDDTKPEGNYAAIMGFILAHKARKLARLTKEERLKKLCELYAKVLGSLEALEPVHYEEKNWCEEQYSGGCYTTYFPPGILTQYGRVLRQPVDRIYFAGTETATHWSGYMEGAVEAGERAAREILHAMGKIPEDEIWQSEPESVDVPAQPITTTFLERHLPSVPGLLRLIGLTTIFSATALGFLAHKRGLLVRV
# Experimental: [The source words this procedure for another target and says it was used here with some conditions changed.] as §1
# [4] = substrate 1 mM putrescine, read-out: Inhibitory Activity (IC50, nM) DAO
IC50 [1],IC50 (recombinant human VAP-1),"IC50 [2, 4]",IC50 [3],IC50 [2],SMILES
> 100000 nM,1.5 nM,55 nM,260 nM,,"CS(=O)(=O)c1ccc(-c2ccc(-n3nnn(CC(CN)=C(F)F)c3=O)cc2)cc1 [Example 16, 1-[2-(aminomethyl)-3,3-difluoro-allyl]-4-[4-(4-methylsulfonylphenyl)phenyl]tetrazol-5-one trifluoroacetate]"
26200 nM,0.6 nM,88 nM,21 nM,,"NCC(Cn1nnn(-c2cc(-c3ccc4c(c3)OCO4)cs2)c1=O)=C(F)F [Example 39, 1-[2-(aminomethyl)-3,3-difluoro-allyl]-4-[4-(1,3-benzodioxol-5-yl)-2-thienyl]tetrazol-5-one trifluoroacetate]"
> 100000 nM,0.5 nM,8170 nM,15100 nM,,"CCn1cc(-c2ccc(Cn3nnn(CC(CN)=C(F)F)c3=O)s2)cn1 [Example 47, 1-[2-(aminomethyl)-3,3-difluoro-allyl]-4-[[5-(1-ethylpyrazol-4-yl)-2-thienyl]methyl]tetrazol-5-one trifluoroacetate]"
56100 nM,0.4 nM,1.6 nM,123 nM,,"Cc1cc(-c2csc(-n3nnn(CC(CN)=C(F)F)c3=O)c2)cc2c1NC(=O)CC2 [Example 40, 6-[5-[4-[2-(aminomethyl)-3,3-difluoro-allyl]-5-oxo-tetrazol-1-yl]-3-thienyl]-8-methyl-3,4-dihydro-1H-quinolin-2-one trifluoroacetate]"
> 100000 nM,19 nM,,> 100000 nM,4370 nM,"Cc1ccc(-c2ccc3c(c2)CCC(=O)N3C)nc1-n1nnn(CC(CN)=C(F)F)c1=O [Example 26, 6-[6-[4-[2-(aminomethyl)-3,3-difluoro-allyl]-5-oxo-tetrazol-1-yl]-5-methyl-2-pyridyl]-1-methyl-3,4-dihydroquinolin-2-one trifluoroacetate]"
> 100000 nM,0.4 nM,52 nM,34 nM,,"CN1C(=O)CCc2cc(-c3csc(-n4nnn(CC(CN)=C(F)F)c4=O)c3)ccc21 [Example 41, 6-[5-[4-[2-(aminomethyl)-3,3-difluoro-allyl]-5-oxo-tetrazol-1-yl]-3-thienyl]-1-methyl-3,4-dihydroquinolin-2-one trifluoroacetate]"
> 100000 nM,0.3 nM,25300 nM,3450 nM,,"CCn1cc(-c2csc(-n3nnn(CC(CN)=C(F)F)c3=O)c2)ccc1=O [Example 37, 5-[5-[4-[2-(aminomethyl)-3,3-difluoro-allyl]-5-oxo-tetrazol-1-yl]-3-thienyl]-1-ethyl-pyridin-2-one trifluoroacetate]"
> 100000 nM,1.2 nM,65 nM,3990 nM,,"NCC(Cn1nnn(-c2ccc(-c3ccc(N4CCNCC4)cc3)cc2)c1=O)=C(F)F [Example 17, 1-[2-(aminomethyl)-3,3-difluoro-allyl]-4-[4-(4-piperazin-1-ylphenyl)phenyl]tetrazol-5-one di-trifluoroacetate]"
> 100000 nM,> 100 nM,38200 nM,80500 nM,,"NCC(Cn1ccn(Cc2ccc(-c3ccn4ncnc4c3)s2)c1=O)=C(F)F [Example 53, 1-[2-(aminomethyl)-3,3-difluoro-allyl]-3-[[5-([1,2,4]triazolo[1,5-a]pyridin-7-yl)-2-thienyl]methyl]imidazol-2-one trifluoroacetate]"
33000 nM,1.8 nM,5160 nM,35800 nM,,"NCC(Cn1nnn(Cc2cccc(-c3ccc(N4CCNCC4)cc3)c2)c1=O)=C(F)F [Example 28, 1-[2-(aminomethyl)-3,3-difluoro-allyl]-4-[[3-(4-piperazin-1-ylphenyl)phenyl]methyl]tetrazol-5-one di-trifluoroacetate]"
> 100000 nM,0.5 nM,4890 nM,8.8 nM,,"NCC(Cn1nnn(-c2ccc(-c3ccc4c(c3)OCO4)cc2)c1=O)=C(F)F [Example 19, 1-[2-(aminomethyl)-3,3-difluoro-allyl]-4-[4-(1,3-benzodioxol-5-yl)phenyl]tetrazol-5-one trifluoroacetate]"
> 100000 nM,1.4 nM,,2470 nM,12 nM,"CN1C(=O)CCc2cc(-c3cccc(-n4nnn(CC(CN)=C(F)F)c4=O)c3)ccc21 [Example 14, 6-[3-[4-[2-(aminomethyl)-3,3-difluoro-allyl]-5-oxo-tetrazol-1-yl]phenyl]-1-methyl-3,4-dihydroquinolin-2-one trifluoroacetate]"
